Each structure is given as a SMILES string.

Usually GI50 stands for the concentration giving 50% growth inhibition. Low values mean greater sensitivity of the cells, high ones lower sensitivity of the cells. For orientation: inhibition means how much of the control response was suppressed.

Experiment [1] concerns FLT 3/4. The conditions noted are these: cited from earlier work.
Experiment [2] concerns serine/threonine kinase MAPK (mitogen-activated protein kinase). Particulars: cited from earlier work.
For experiment [3], the system named is MEK 1/2. The conditions noted are these: cited from earlier work.
Experiment [4] concerns the target VEGFR 2 (Homo sapiens, UniProt P35968). The conditions noted are these: cited from earlier work.
The subject of experiment [5] is Molm-14. Kind of experiment: Suppressive activity against growth of AML cells (MTT assay). Format: cell-based. Particulars: Homo sapiens; Molm-14 cancer cell line. In general terms: Tetrazolium dyes change colour on reduction, which living cells bring about.
For experiment [6], the target named is PDGFRb (Homo sapiens, UniProt P09619). Kind of experiment: Assay for inhibitory activity against kinase. Particulars: read-out: % Inhibition (1 uM).
PDGFRb, sequence (P09619 33-1106): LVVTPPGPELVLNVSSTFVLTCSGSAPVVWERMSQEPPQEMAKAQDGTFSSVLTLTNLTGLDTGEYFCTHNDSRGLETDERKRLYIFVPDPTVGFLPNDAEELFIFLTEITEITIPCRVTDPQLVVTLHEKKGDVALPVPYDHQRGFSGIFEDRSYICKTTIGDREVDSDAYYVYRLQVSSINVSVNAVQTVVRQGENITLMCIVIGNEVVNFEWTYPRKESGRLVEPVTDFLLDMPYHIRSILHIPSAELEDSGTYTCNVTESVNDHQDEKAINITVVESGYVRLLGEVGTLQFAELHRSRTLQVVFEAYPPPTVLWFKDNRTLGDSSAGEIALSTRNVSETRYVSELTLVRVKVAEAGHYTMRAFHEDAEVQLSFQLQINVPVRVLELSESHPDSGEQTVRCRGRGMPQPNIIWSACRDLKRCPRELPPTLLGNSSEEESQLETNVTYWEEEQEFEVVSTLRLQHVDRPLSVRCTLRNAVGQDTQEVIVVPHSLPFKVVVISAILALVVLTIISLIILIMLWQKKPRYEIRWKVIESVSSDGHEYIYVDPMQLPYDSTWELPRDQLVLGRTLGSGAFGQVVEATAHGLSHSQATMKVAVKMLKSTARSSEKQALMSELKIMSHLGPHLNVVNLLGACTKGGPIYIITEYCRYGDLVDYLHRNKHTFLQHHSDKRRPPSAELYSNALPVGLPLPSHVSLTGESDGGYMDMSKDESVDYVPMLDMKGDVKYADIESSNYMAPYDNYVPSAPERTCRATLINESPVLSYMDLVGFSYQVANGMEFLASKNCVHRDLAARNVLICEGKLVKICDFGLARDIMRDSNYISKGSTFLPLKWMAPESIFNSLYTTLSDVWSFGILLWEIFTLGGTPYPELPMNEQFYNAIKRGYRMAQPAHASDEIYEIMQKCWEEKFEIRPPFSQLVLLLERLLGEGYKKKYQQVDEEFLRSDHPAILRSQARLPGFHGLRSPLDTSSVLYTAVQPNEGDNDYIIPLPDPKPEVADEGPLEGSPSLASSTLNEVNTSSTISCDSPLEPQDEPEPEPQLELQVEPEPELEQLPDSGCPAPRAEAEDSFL
The target of experiment [7] is FLT1/VEGFR1 (Homo sapiens, UniProt P17948). Kind of experiment: Assay for inhibitory activity against kinase. Particulars: read-out: % Inhibition (1 uM).
FLT1/VEGFR1, sequence (P17948 27-1338): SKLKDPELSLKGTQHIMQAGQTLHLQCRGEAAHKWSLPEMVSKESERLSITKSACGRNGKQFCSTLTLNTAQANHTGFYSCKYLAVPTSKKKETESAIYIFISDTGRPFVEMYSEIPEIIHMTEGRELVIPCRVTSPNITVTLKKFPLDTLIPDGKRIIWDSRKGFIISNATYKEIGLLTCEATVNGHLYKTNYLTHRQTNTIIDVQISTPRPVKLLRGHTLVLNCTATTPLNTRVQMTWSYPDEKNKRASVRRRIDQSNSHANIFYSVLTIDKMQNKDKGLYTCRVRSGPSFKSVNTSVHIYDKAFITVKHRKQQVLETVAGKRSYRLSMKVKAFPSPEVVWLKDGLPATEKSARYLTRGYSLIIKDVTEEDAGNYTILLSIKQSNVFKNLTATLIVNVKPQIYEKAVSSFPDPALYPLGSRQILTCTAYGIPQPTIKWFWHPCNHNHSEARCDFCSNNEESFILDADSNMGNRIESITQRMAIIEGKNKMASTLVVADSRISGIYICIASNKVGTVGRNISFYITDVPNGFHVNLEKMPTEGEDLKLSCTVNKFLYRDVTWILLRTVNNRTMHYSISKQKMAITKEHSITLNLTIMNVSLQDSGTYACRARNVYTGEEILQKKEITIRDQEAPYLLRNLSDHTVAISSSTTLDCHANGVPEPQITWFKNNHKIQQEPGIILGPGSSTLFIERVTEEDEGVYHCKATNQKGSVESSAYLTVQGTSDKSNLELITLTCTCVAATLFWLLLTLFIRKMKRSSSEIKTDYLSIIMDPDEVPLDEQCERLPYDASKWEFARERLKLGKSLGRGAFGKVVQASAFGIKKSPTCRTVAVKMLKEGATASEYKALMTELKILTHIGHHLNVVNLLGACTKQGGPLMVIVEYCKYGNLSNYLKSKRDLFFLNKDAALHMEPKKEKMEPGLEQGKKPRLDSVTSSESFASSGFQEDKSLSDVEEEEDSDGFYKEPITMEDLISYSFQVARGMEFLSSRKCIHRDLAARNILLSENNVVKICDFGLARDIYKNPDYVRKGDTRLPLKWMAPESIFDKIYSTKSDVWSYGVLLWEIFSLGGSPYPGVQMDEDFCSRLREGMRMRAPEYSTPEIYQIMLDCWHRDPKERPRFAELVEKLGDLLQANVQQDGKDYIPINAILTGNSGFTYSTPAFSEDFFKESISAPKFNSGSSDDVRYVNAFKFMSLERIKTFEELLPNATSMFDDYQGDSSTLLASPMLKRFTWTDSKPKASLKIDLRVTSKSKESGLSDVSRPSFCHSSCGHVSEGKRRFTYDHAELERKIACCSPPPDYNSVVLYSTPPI
Experiment [8] relates to MV4-11 cell line. Kind of experiment: Suppressive activity against growth of AML cells (MTT assay). In kind it is cell-based. Particulars: Homo sapiens, MV4-11 cancer cell line, 48 hrs treatment. The procedure:
The MV4-11 cell line was grown at 37° C. in RPMI medium [Gibco, New York, USA/10% FBS (Gibco), containing 1% penicillin/streptomycin (Gibco)] in a 5% CO2 atmosphere. The grown MV4-11 cell line was withdrawn into PBS, seeded at a density of 3×10^4 cells/well into 96-well plates, and cultured at 37° C. for 24 hrs in a 5% CO2 atmosphere. Various concentrations of the compound (8 points) were prepared by serial dilution in 10 mM DMSO, and the MV4-11 cell line was treated with various concentrations of the compound for 48 hrs. To assess cell viability, 3-(4,5-dimethylthiazol-2-yl)-2,5-diphenyl tetrazolium bromide (MTT) assay (CellTiter 96 Assay, Promega) was performed.
Briefly, the dye was added in an amount of 15 μL to each well and incubated for 2 hrs. Then, each well was incubated with 100 μL of a stop solution for 24 hrs, followed by reading absorbance at 590 nm on EnVision2103. GI50 was calculated using GraphPad Prism 4.0.

VEGFR 2, sequence (P35968 20-1356, species assumed): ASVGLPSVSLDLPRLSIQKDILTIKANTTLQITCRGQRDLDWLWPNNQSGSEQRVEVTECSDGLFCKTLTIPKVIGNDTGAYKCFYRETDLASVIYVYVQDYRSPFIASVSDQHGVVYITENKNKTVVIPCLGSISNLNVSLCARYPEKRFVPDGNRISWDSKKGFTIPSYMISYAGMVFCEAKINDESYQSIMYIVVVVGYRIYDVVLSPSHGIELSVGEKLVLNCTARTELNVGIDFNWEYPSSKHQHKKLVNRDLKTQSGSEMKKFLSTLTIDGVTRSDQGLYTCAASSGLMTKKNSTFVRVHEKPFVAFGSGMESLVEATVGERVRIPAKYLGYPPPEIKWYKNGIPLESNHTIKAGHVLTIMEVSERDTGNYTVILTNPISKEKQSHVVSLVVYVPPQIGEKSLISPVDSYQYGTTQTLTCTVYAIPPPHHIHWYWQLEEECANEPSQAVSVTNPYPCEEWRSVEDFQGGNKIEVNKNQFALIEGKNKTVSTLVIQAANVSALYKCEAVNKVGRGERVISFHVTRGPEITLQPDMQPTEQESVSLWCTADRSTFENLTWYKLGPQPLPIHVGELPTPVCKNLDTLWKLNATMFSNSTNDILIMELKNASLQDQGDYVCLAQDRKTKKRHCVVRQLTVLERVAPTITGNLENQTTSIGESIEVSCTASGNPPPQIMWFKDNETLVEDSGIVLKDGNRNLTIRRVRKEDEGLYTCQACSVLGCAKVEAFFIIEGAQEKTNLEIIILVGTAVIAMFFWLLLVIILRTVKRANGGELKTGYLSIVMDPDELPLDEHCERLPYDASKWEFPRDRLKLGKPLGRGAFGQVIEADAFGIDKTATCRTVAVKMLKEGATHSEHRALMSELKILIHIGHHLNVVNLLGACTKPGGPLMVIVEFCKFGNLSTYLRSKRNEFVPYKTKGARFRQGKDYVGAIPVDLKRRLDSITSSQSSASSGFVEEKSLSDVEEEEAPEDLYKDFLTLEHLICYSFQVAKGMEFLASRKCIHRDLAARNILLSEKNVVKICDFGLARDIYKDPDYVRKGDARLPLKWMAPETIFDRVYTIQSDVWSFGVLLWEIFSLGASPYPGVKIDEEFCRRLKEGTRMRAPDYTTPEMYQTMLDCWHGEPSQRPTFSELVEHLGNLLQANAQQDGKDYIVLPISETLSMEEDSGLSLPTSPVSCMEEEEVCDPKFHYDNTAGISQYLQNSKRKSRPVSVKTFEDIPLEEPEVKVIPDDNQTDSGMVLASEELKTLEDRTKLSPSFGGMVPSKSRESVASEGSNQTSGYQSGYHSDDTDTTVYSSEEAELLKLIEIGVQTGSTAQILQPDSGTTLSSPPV

As to `COc1cc(O)c2c(c1)CCC[C@H](O)[C@H](O)C(=O)/C=C\C[C@H](C)OC2=O` [Compound L-783277], the “inhibitory activity against FLT 3/4” value in experiment [1] is given as “potent inhibitory activity”. Also, the “inhibition of MAPK (mode)” value in experiment [2] is reported as “irreversible ATP competitive inhibitor”. Also, in experiment [3], the “inhibitory activity against MEK 1/2” value was “potent inhibitory activity”. Besides, in experiment [4], the “inhibitory activity against VEGFR 2” value was “potent inhibitory activity”.

Take `COc1cc(O)c2c(c1)-c1cccc(c1)[C@@H](O)[C@H](O)C(=O)/C=C\C[C@H](C)OC2=O` [Cpd. 24]: the GI50 in experiment [5] was found to be 0.09 µM; in experiment [8] it was 0.03 µM. Further, the inhibition at 1 µM was found to be 70% in experiment [6] and 64% in experiment [7].
